Test results: patent US20230391714A1, “INHIBITORS OF THE INTERACTION BETWEEN TRIP8B AND HCN CHANNELS AND USES THEREOF FOR TREATING NEUROLOGICAL DISEASES AND DISORDERS” (Northwestern University, priority 2022, published 2023)
Like-named read-outs stand apart in the source and are kept apart here.

Biological target: TRIP8b-HCN1c40 (Homo sapiens (Human), UniProt Q8IYB4)
Experiment: TRIP8b-HCN1c40 AlphaScreen assay
Format: binding
Method: AlphaScreen Assay. 20 nM ofGST-tagged HCNlc40 protein (corresponding to the C terminal 40 amino acids of HCN1) was incubated with 200 nM of His-tagged TRIP8b(241-602) and varying concentrations of the test compound as described in our prior report (Han et al., 2015). After a 3 h incubation, anti-GST AlphaScreen acceptor beads were added for 1.5 h followed by AlphaScreen nickel chelate donor beads for 1.5 h. AlphaScreen signal was quantified using a PerkinElmer (Waltham, MA) EnSpire multimode plate reader.

[1] = activity ranges, read-out: TRIP8b-HCN1c40 Alphascreen IC50 activity
[2] = read-out: TRIP8b-HCN1c40 Alphascreen IC50

Chain of TRIP8b-HCN1c40 (Q8IYB4 265-626): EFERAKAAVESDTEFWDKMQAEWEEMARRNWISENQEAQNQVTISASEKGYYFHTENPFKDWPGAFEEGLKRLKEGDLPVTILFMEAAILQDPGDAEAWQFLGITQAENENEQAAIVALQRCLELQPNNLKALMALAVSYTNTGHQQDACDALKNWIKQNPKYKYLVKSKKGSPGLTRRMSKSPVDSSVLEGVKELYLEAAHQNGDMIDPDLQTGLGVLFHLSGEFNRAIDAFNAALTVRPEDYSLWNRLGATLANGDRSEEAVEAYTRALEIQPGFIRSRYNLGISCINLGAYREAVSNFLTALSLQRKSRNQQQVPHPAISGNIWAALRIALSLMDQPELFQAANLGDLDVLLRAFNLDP

Compound	IC50 [1] [nM]	IC50 [2] [nM]
CN1CCN(Cc2cc(-c3ccc(Cl)c(Cl)c3)ccc2OCCNS(=O)(=O)c2ccc(Cl)cc2)CC1 [NUCC-0201975]	1000 to 2000	1700
CN1CCN(Cc2cc(-c3ccc(Cl)c(Cl)c3)ccc2OCC(=O)N2CCc3ccccc32)CC1 [NUCC-0201980]	1000 to 2000	1200
CN1CCN(Cc2cc(-c3ccc(Cl)c(Cl)c3)ccc2OCC(=O)NCc2ccc(C(F)(F)F)cc2)CC1 [NUCC-0201982]	2000 to 5000	2500
CN1CCN(Cc2cc(-c3ccc(Cl)c(Cl)c3)ccc2OCC(=O)NCc2ccc(C#N)cc2)CC1 [NUCC-0201984]		5300
CN1CCN(Cc2cc(-c3ccc(Cl)c(Cl)c3)ccc2OCC(=O)NCc2ccc([N+](=O)[O-])cc2)CC1 [NUCC-0201985]	2000 to 5000	2500
CN1CCN(Cc2cc(-c3ccc(Cl)c(Cl)c3)ccc2OCC(=O)NCc2cccc(Cl)c2)CC1 [NUCC-0201986]	1000 to 2000	1100
CN1CCN(Cc2cc(-c3ccc(Cl)c(Cl)c3)ccc2OCC(=O)NCc2ccccc2)CC1 [NUCC-0201987]	2000 to 5000	2500
CN1CCN(Cc2cc(-c3ccc(Cl)c(Cl)c3)ccc2OCC(=O)NC2CCc3ccccc32)CC1 (centres unmarked) [NUCC-0201988]	1000 to 2000	1400
CN1CCN(Cc2cc(-c3ccc(Cl)c(Cl)c3)ccc2OCC(=O)NC2Cc3ccccc3C2)CC1 [NUCC-0201989]	1000 to 2000	1300
CN1CCN(Cc2cc(-c3ccc(Cl)c(Cl)c3)ccc2OCC(=O)N2Cc3ccc(Cl)cc3C2)CC1 [NUCC-0201993]	1000 to 2000	1900
CN1CCN(Cc2cc(-c3ccc(Cl)c(Cl)c3)ccc2OCC(=O)NCCc2ccc(C#N)cc2)CC1 [NUCC-0201994]	2000 to 5000	3400
CN1CCN(Cc2cc(-c3ccc(Cl)c(Cl)c3)ccc2OCC(=O)NCCc2ccccc2)CC1 [NUCC-0201996]	1000 to 2000	1100
CN1CCN(Cc2cc(-c3cccnc3)ccc2OCC(=O)Nc2ccc(Cl)c(Cl)c2)CC1 [NUCC-0202005]	5000 to 10000	5500
CN1CCN(Cc2cc(-c3ccncc3)ccc2OCC(=O)Nc2ccc(Cl)c(Cl)c2)CC1 [NUCC-0202006]	5000 to 10000	5300
CN1CCN(Cc2cc(-c3cc(C(F)(F)F)cnc3Cl)ccc2OCC(=O)Nc2ccc(Cl)c(Cl)c2)CC1 [NUCC-0202007]	2000 to 5000	4600
CN1CCN(Cc2ccc(-c3ccc(Cl)c(Cl)c3)cc2OCC(=O)NCc2ccc(Cl)cc2)CC1 [NUCC-0202008]	1000 to 2000	1200
CN1CCN(Cc2ccc(-c3ccc(Cl)cc3)cc2OCC(=O)NCc2ccc(Cl)cc2)CC1 [NUCC-0202009]	1000 to 2000	1000
CN1CCN(Cc2ccc(-c3ccc(F)cc3)cc2OCC(=O)NCc2ccc(Cl)cc2)CC1 [NUCC-0202010]	5000 to 10000	5700

Compound	IC50 [1] [nM]	IC50 [2] [nM]
Cc1ccc(-c2ccc(CN3CCN(C)CC3)c(OCC(=O)NCc3ccc(Cl)cc3)c2)cc1 [NUCC-0202011]	1000 to 2000	1500
CN1CCN(Cc2ccc(-c3ccc(C(F)(F)F)cc3)cc2OCC(=O)NCc2ccc(Cl)cc2)CC1 [NUCC-0202012]	2000 to 5000	2100
CN1CCN(Cc2ccc(-c3ccc(F)c(C(F)(F)F)c3)cc2OCC(=O)NCc2ccc(Cl)cc2)CC1 [NUCC-0202013]	1000 to 2000	1400
C=Cc1ccccc1NC(=O)COc1ccc(-c2ccc(Cl)c(Cl)c2)cc1CN1CCN(C)CC1 [NUCC-0202015]	1000 to 2000	1100
Cc1ccc(NC(=O)COc2ccc(-c3ccc(Cl)c(Cl)c3)cc2CN2CCN(C)CC2)cc1 [NUCC-0202018]	1000 to 2000	1000
COc1ccc(NC(=O)COc2ccc(-c3ccc(Cl)c(Cl)c3)cc2CN2CCN(C)CC2)cc1 [NUCC-0202019]	1000 to 2000	1300
CN1CCN(Cc2cc(-c3ccc(N)cc3)ccc2OCC(=O)Nc2ccc(Cl)c(Cl)c2)CC1 [NUCC-0202020]	1000 to 2000	1500
CN1CCN(Cc2cc(-c3ccc4c(c3)OCCO4)ccc2OCC(=O)Nc2ccc(Cl)c(Cl)c2)CC1 [NUCC-0202021]	1000 to 2000	1400
CN1CCN(Cc2cc(-c3cccc(S(C)(=O)=O)c3)ccc2OCC(=O)Nc2ccc(Cl)c(Cl)c2)CC1 [NUCC-0202022]	2000 to 5000	2700
CN1CCN(Cc2cc(-c3ccc(Cl)c(C(F)(F)F)c3)ccc2OCC(=O)Nc2ccc(Cl)c(Cl)c2)CC1 [NUCC-0202023]	1000 to 2000	1300
CN1CCN(Cc2cc(-c3ccc(CO)cc3)ccc2OCC(=O)Nc2ccc(Cl)c(Cl)c2)CC1 [NUCC-0202024]	2000 to 5000	3200
CC(Oc1ccc(-c2ccc(Cl)cc2)cc1CN1CCN(C)CC1)C(=O)NCc1ccc(Cl)cc1 (centres unmarked) [NUCC-0202025]	1000 to 2000	1500
CC(Oc1ccc(-c2ccc(C(F)(F)F)cc2)cc1CN1CCN(C)CC1)C(=O)NCc1ccc(Cl)cc1 (centres unmarked) [NUCC-0202029]	2000 to 5000	4500
CC(Oc1ccc(-c2ccc(O)cc2)cc1CN1CCN(C)CC1)C(=O)NCc1ccc(Cl)cc1 (centres unmarked) [NUCC-0202030]	10000 to 20000	14000
Cc1ccc(-c2ccc(OC(C)C(=O)NCc3ccc(Cl)cc3)c(CN3CCN(C)CC3)c2)cc1 (centres unmarked) [NUCC-0202031]	2000 to 5000	3400
CC(Oc1ccc(-c2ccc(F)cc2)cc1CN1CCN(C)CC1)C(=O)NCc1ccc(Cl)cc1 (centres unmarked) [NUCC-0202032]	2000 to 5000	3200
CC(Oc1ccc(-c2ccc([N+](=O)[O-])cc2)cc1CN1CCN(C)CC1)C(=O)NCc1ccc(Cl)cc1 (centres unmarked) [NUCC-0202034]	2000 to 5000	2700

Other lines, results leading:

IC50 [1] [nM]	IC50 [2] [nM]	Compound
< 1000	830	CN1CCN(Cc2cc(-c3ccc(Cl)c(Cl)c3)ccc2OCCNCc2ccc(Cl)cc2)CC1 [NUCC-0201976]
< 1000	870	CN1CCN(Cc2cc(-c3ccc(Cl)cc3)ccc2OCC(=O)NCc2ccc(Cl)c(Cl)c2)CC1 [NUCC-0201977]
< 1000	< 740	CN1CCN(Cc2cc(-c3ccc(Cl)cc3Cl)ccc2OCC(=O)NCc2ccc(Cl)c(Cl)c2)CC1 [NUCC-0201978]
< 1000	< 740	CN1CCN(Cc2cc(-c3cc(Cl)cc(Cl)c3)ccc2OCC(=O)NCc2ccc(Cl)c(Cl)c2)CC1 [NUCC-0201979]
< 1000	< 740	CN1CCN(Cc2cc(-c3ccc(Cl)c(Cl)c3)ccc2OCC(=O)N2CCc3cc(Cl)ccc32)CC1 [NUCC-0201981]
< 1000	910	CN1CCN(Cc2cc(-c3ccc(Cl)c(Cl)c3)ccc2OCC(=O)NCc2ccccc2Cl)CC1 [NUCC-0201983]
< 1000	< 740	CN1CCN(Cc2cc(-c3ccc(Cl)c(Cl)c3)ccc2OCC(=O)N2CCc3ccccc3C2)CC1 [NUCC-0201990]
< 1000	< 740	CN1CCN(Cc2cc(-c3ccc(Cl)c(Cl)c3)ccc2OCC(=O)N2CCc3cc(Cl)c(Cl)cc32)CC1 [NUCC-0201991]
< 1000	< 740	CN1CCN(Cc2cc(-c3ccc(Cl)c(Cl)c3)ccc2OCC(=O)NC2Cc3ccc(Cl)cc3C2)CC1 (centres unmarked) [NUCC-0201992]
< 1000	< 740	CN1CCN(Cc2cc(-c3ccc(Cl)c(Cl)c3)ccc2OCC(=O)NCCc2ccc(C(F)(F)F)cc2)CC1 [NUCC-0201995]
< 1000	< 740	CN1CCN(Cc2cc(-c3ccccc3Cl)ccc2OCC(=O)Nc2ccc(Cl)c(Cl)c2)CC1 [NUCC-0201997]
< 1000	< 740	CN1CCN(Cc2cc(-c3cccc(Cl)c3)ccc2OCC(=O)Nc2ccc(Cl)c(Cl)c2)CC1 [NUCC-0201998]
< 1000	< 740	CN1CCN(Cc2cc(-c3ccc(Cl)cc3)ccc2OCC(=O)Nc2ccc(Cl)c(Cl)c2)CC1 [NUCC-0201999]
< 1000	760	Cc1cccc(-c2ccc(OCC(=O)Nc3ccc(Cl)c(Cl)c3)c(CN3CCN(C)CC3)c2)c1 [NUCC-0202000]
< 1000	< 740	CN1CCN(Cc2cc(-c3ccc(Cl)cc3Cl)ccc2OCC(=O)Nc2ccc(Cl)c(Cl)c2)CC1 [NUCC-0202001]
< 1000	< 740	CN1CCN(Cc2cc(-c3ccc(Cl)c(Cl)c3)ccc2OCC(=O)Nc2ccc(Cl)c(Cl)c2)CC1 [NUCC-0202002]
< 1000	< 740	CN1CCN(Cc2cc(-c3cc(Cl)cc(Cl)c3)ccc2OCC(=O)Nc2ccc(Cl)c(Cl)c2)CC1 [NUCC-0202003]
< 1000	890	CN1CCN(Cc2cc(-c3ccccc3)ccc2OCC(=O)Nc2ccc(Cl)c(Cl)c2)CC1 [NUCC-0202004]
< 1000	810	CN1CCN(Cc2cc(-c3ccc(Cl)c(Cl)c3)ccc2OCC(=O)Nc2ccc3ncsc3c2)CC1 [NUCC-0202014]
< 1000	780	CN1CCN(Cc2cc(-c3ccc(Cl)c(Cl)c3)ccc2OCC(=O)Nc2ccc(Cl)cc2)CC1 [NUCC-0202016]
< 1000	< 740	CN1CCN(Cc2cc(-c3ccc(Cl)c(Cl)c3)ccc2COC(=O)Nc2ccc3c(c2)OCO3)CC1 [NUCC-0202017]
< 1000	910	CC(Oc1ccc(-c2ccc(Cl)cc2Cl)cc1CN1CCN(C)CC1)C(=O)NCc1ccc(Cl)cc1 (centres unmarked) [NUCC-0202026]
< 1000	940	CC(Oc1ccc(-c2ccc(Cl)c(Cl)c2)cc1CN1CCN(C)CC1)C(=O)NCc1ccc(Cl)cc1 (centres unmarked) [NUCC-0202027]
< 1000	860	CC(Oc1ccc(-c2cc(Cl)cc(Cl)c2)cc1CN1CCN(C)CC1)C(=O)NCc1ccc(Cl)cc1 (centres unmarked) [NUCC-0202028]
< 1000	990	CC(Oc1ccc(-c2ccc(F)c(C(F)(F)F)c2)cc1CN1CCN(C)CC1)C(=O)NCc1ccc(Cl)cc1 (centres unmarked) [NUCC-0202033]
